Common to all, as to type: cell-based
One test has as its system Alternaria solani. As to the kind of experiment: Broth microdilution MIC of individual antifungals. To be noted: individual antifungal, 25% PDB, about 25° C., 72 hours, range over N independent triplicate studies; for MIC: read-out: Independent MIC.
The test system of the next test is Sclerotinia homoeocarpa. The test can be described thus: Broth microdilution MIC of individual antifungals. As to conditions: Sclerotinia homoeocarpa, individual antifungal, 25% PDB, about 25° C., 72 hours, range over N independent triplicate studies; for MIC: Clarireedia homoeocarpa, read-out: Independent MIC. (Broth dilution looks for growth in wells or tubes with falling amounts of substance.)

Another test relates to Botrytis cinerea 10-1728. As to the kind of experiment: Broth microdilution MIC of individual antifungals. As to conditions: Botrytis cinerea 10-1728, individual antifungal, 25% PDB, about 25° C., 72 hours, range over N independent triplicate studies; for MIC: 101728, read-out: Independent MIC.
For a further test, the system named is Phytophthora pini. As to the kind of experiment: Broth microdilution MIC of individual antifungals. As to conditions: individual antifungal, 25% PDB, about 25° C., 72 hours, range over N independent triplicate studies.
The test system of test [1] is Mycosphaerella zeae-maydis. The test can be described thus: Broth microdilution MIC of individual antifungals. To be noted: Didymella maydis, individual antifungal, 25% PDB, about 25° C., 72 hours, range over N independent triplicate studies.
The test system of a further test is Aspergillus fumigatus. As to the kind of experiment: Broth microdilution MIC of individual antifungals. As to conditions: individual antifungal, 25% PDB, about 25° C., 72 hours, range over N independent triplicate studies; for MIC: read-out: Independent MIC.
In a further test the test system is Aspergillus niger. The test can be described thus: Broth microdilution MIC of individual antifungals. To be noted: for MIC: read-out: Independent MIC.
Another test concerns Rhizopus sp. As to the kind of experiment: Broth microdilution MIC of individual antifungals. As to conditions: Rhizopus, 72 h, Rhizopus sp.; individual antifungal, 25% PDB, about 25° C., 72 hours; range over N independent triplicate studies; read-out: Independent MIC.
A further test concerns Mucor sp. As to the kind of experiment: Broth microdilution MIC of individual antifungals. To be noted: individual antifungal, 25% PDB, about 25° C., 72 hours, range over N independent triplicate studies.
For another test, the system named is Fusarium graminearum. As to the kind of experiment: microbe, parasite or virus in culture. As to conditions: Fusarium graminearum; for MIC: 72 h, read-out: Independent MIC.
The subject of another test is Magnaporthe grisea. As to the kind of experiment: microbe, parasite or virus in culture. As to conditions: for Independent MIC: Magnaporthe grisea, individual antifungal, 25% PDB, about 25° C., 72 hours, range over N independent triplicate studies.
For a further test, the system named is Aspergillus flavus. As to the kind of experiment: Broth microdilution MIC of individual antifungals. As to conditions: individual antifungal, 25% PDB, about 25° C., 72 hours, range over N independent triplicate studies, read-out: Independent MIC.
The test system of the next test is Fusarium verticillioides. The test can be described thus: Broth microdilution MIC of individual antifungals. To be noted: individual antifungal, 25% PDB, about 25° C., 72 hours, range over N independent triplicate studies, read-out: Independent MIC.
Setting [2] is: individual antifungal, 25% PDB, about 25° C., 72 hours, range over N independent triplicate studies.

In brackets after ≈: the same amount, converted by molar mass. Read-outs that look alike come from different tables or passages of the source.

Regarding `C[C@H]1O[C@H](O[C@H]2[C@H](O)[C@@H](O)[C@@H](O)[C@H](O)[C@@H]2O)[C@@H](N)C[C@@H]1NC(=N)C(=O)O` [Kasugamycin], the “Independent MIC” value in the test on Alternaria solani was “(100-200) μg/mL”; in the test on Sclerotinia homoeocarpa, 100 µg/mL; in the test with Botrytis cinerea 10-1728 it was 200 µg/mL; with Phytophthora pini, 200 µg/mL.

With `C=CC1(C)OC(=O)N(c2cc(Cl)cc(Cl)c2)C1=O` (stereo not shown) [Vinclozolin, vinclozolin], the MIC in test [1] was 6.25 to 16 µg/mL; in the test on Aspergillus fumigatus it was 100 to 200 µg/mL; with Aspergillus niger (setting [2]), 50 to 100 µg/mL; in the test on Sclerotinia homoeocarpa, 4 to 5 µg/mL; in the test with Botrytis cinerea 10-1728 it was 100 to 400 µg/mL; in the test on Rhizopus sp., 100 µg/mL. Moreover, the MIC in the test on Mucor sp. was in the range of 100 to 200 µg/mL.

On to `CO/C=C(/C(=O)OC)c1ccccc1COc1cccc(C(F)(F)F)n1` [Picoxystrobin, picoxystrobin], for which the “Independent MIC” value was “(25-50) μg/mL” with Aspergillus fumigatus; 1.56 µg/mL in the test on Sclerotinia homoeocarpa; “(100-200) μg/mL” in the test with Botrytis cinerea 10-1728; “(200-400) μg/mL” with Fusarium graminearum (setting [2]); “(50-200) μg/mL” in the test with Mucor sp.; “(3.13-6.25) μg/mL” with Magnaporthe grisea.

Take `CC(Oc1ccc(Cl)cc1Cl)C(=O)NC(C)(C#N)C(C)C` (stereo not shown) [Fenoxanil, fenoxanil]: the “Independent MIC” value with Alternaria solani was 200 µg/mL; with Sclerotinia homoeocarpa, 200 µg/mL; in the test with Botrytis cinerea 10-1728, “(100-200) μg/mL”; in the test with Mucor sp. it was “(50-100) μg/mL”.

Turning to `CSC1=N[C@@](C)(c2ccccc2)C(=O)N1Nc1ccccc1` [Fenamidone, fenamidone], the MIC in test [1] was 50 to 200 µg/mL; in the test with Alternaria solani, 100 to 200 µg/mL; with Sclerotinia homoeocarpa it was 100 to 200 µg/mL; in the test on Botrytis cinerea 10-1728 it was 100 µg/mL; in the test on Mucor sp., 50 to 200 µg/mL.

Regarding `Cn1cc(C(=O)Nc2ccccc2-c2cc(F)c(F)c(F)c2)c(C(F)F)n1` [Fluxapyroxad, fluxapyroxad], the “Independent MIC” value in the test on Aspergillus niger (setting [2]) is “(0.39-0.4) μg/mL”; with Botrytis cinerea 10-1728, 6.25 µg/mL; in the test on Magnaporthe grisea, 3.13 µg/mL.

Take `CCCCc1c(C)nc(NCC)[nH]c1=O` [Ethirimol, ethirimol]: the MIC in test [1] is 400 µg/mL; in the test on Sclerotinia homoeocarpa, 200 µg/mL; in the test on Botrytis cinerea 10-1728 it was 200 to 400 µg/mL; in the test on Phytophthora pini, 200 µg/mL.

For the compound `O=C(Nc1ccccc1-c1ccc(Cl)cc1)c1cccnc1Cl` [Boscalid, boscalid], the results for the MIC in the test with Aspergillus niger (setting [2]), in the test on Sclerotinia homoeocarpa and in the test on Botrytis cinerea 10-1728 were 0.39 to 0.5 µg/mL, 0.8 µg/mL and 3.12 to 6.25 µg/mL, respectively.

Take `OB1OCc2ccccc21` [BO, 2-(hydroxymethyl)benzene boronic acid hemiester]: the MIC with Fusarium graminearum lay within 2 to 4 µg/mL (≈ 14.9 to 29.9 µM).

On to `Fc1ccc(Oc2ccnc3cc(Cl)cc(Cl)c23)cc1` [Quinoxyfen, quinoxyfen], for which the results for the MIC with Botrytis cinerea 10-1728 and in the test on Rhizopus sp. were 50 to 100 µg/mL and 100 to 200 µg/mL, respectively.

On to `CCC(C)(NC(=O)c1cc(Cl)c(C)c(Cl)c1)C(=O)CCl` (stereo not shown) [Zoxamide, zoxamide], for which the MIC with Botrytis cinerea 10-1728 fell in the range of 0.39 to 1.6 µg/mL.

`COC(=O)Nc1nc2ccccc2[nH]1` [Carbendazim, carbendazim]: the MIC in [1] was 1.56 to 2 µg/mL; in the test with Aspergillus flavus it was 0.78 to 3.12 µg/mL; in the test on Aspergillus fumigatus, 1.56 to 3.12 µg/mL; in the test with Aspergillus niger (72 h), 1 to 1.56 µg/mL; in the test on Sclerotinia homoeocarpa it was 0.05 to 0.1 µg/mL; in the test on Fusarium graminearum it was 1.56 µg/mL (≈ 8.16 µM). Moreover, the MIC with Fusarium verticillioides was in the range of 3.12 to 4 µg/mL; with Magnaporthe grisea (Pyricularia oryzae, 72 h, read-out: Independent MIC) it was 0.39 to 0.78 µg/mL (≈ 2.04 to 4.08 µM).

`CC(C)Oc1cccc(NC(=O)c2ccccc2C(F)(F)F)c1` [Flutolanil, flutolanil]: the MIC in the test on Botrytis cinerea 10-1728 stood at 400 µg/mL.

For `CCOc1ccc(NC(=O)OC(C)C)cc1OCC` [Diethofencarb, diethofencarb], the MIC in the test on Sclerotinia homoeocarpa is 100 to 200 µg/mL; in the test on Botrytis cinerea 10-1728, 1.5 to 1.56 µg/mL; with Mucor sp., 100 to 200 µg/mL.

Regarding `CCCOC(=O)NCCCN(C)C` [Propamocarb, propamocarb], the MIC is 100 to 200 µg/mL with Alternaria solani, 200 µg/mL in the test on Sclerotinia homoeocarpa, 100 to 400 µg/mL in the test on Botrytis cinerea 10-1728 and 200 to 400 µg/mL in the test on Mucor sp..

As to `COc1ccc(C(=CC(=O)N2CCOCC2)c2ccc(Cl)cc2)cc1OC` [Dimethomorph, dimethomorph], the values for the MIC in the test with Botrytis cinerea 10-1728 and in the test with Mucor sp. were 100 to 200 µg/mL and 200 to 400 µg/mL, respectively.

These data come from US9737075B2, “Synergistic benzoxaborole-containing anti-fungicidal composition” (The Penn State Research Foundation, priority 2015, dated 2017).
